Test results as given in patent US4950686A, “Anti-mycoplasma agent” (Shionogi & Co., Ltd., priority 1986, dated 1990).
Converted amounts (≈) assume the structure as drawn. Structures can show the parent of a compound that is named as a salt. Where two headings read alike, the source gives them in different places. One block for each compound: values may come before it.

How the values were obtained:
[1] = system: Mycoplasma gallisepticum S6 (standard strain); test: Anti-mycoplasma activity in vitro (MIC, broth dilution), strain S6; assay type: cell-based; conditions: Mg S6, 37° C., 7 days
Procedure: (§1) (1) Anti-mycoplasma activity test in vitro
(§2) MIC values of each of Tropolones were measured on the following strains according to the following method.
(§3) (a) Mycoplasma gallisepticum
(§4) Medium: Chick PPLO broth supplemented with 20% equine serum (Eiken Kagaku Co., Ltd.)
(§5) Method: Broth dilution method
(§6) Inoculum: Culture incubated at 37° C. for 24-48 hr which is diluted with broth to 10^6 CCU/ml immediately before the use.
(§7) To 1.6 ml of the broth is added 0.2 ml of an agent which has been subjected to 2-fold dilution and then added 0.2 ml of inoculum, which is incubated at 37° C. for 7 days.

[2] = system: Mycoplasma gallisepticum T-7-T (wild strain, tylosin-resistant); test: Anti-mycoplasma activity in vitro (MIC, broth dilution), strain T-7-T; assay type: cell-based; conditions: Mg T-7-T, 37° C., 7 days
Procedure: as §1, §2, §3
(§8) T-7-T (wild strain, tylosin-resistant)
as §4, §5, §6, §7

[3] = system: Mycoplasma gallisepticum MR-1 (wild strain, tylosin-resistant); test: Anti-mycoplasma activity in vitro (MIC, broth dilution), strain MR-1; assay type: cell-based; conditions: Mg MR-1, 37° C., 7 days
Procedure: as §1, §2, §3
MR-1 (wild strain, tylosin-resistant)
as §4, §5, §6, §7

[4] = system: Mycoplasma hyopneumoniae ST-11 (standard strain); test: Anti-mycoplasma activity in vitro (MIC, broth dilution), strain ST-11; assay type: cell-based; conditions: Mh ST-11
Procedure: as §1, §2
(b) Mycoplasma hyopneumoniae
Strain: ST-11 (standard strain)
Medium: 850 ml of Hanks' solution supplemented with 0.5% lactoalbumin, 50 ml of 25% yeast, 100 ml of equine serum and 4-6 ml of 0.5% phenol red (pH 7.4-7.6)
as §5
Inoculum: Culture which is incubated for 3-4 days and diluted 10 times with the broth if color of the broth becomes yellow then. If it needs over 4 days until color of the broth becomes yellow, it is further subcultured. This is diluted 10 times with the broth to give inoculum.
Assay is done in the same manner as in the above (a).

[5] = system: Mycoplasma gallisepticum S6 (standard strain); test: Mycoplasma gallisepticum air-sac infection method in chicken, strain S6; assay type: in vivo, Mycoplasma gallisepticum; SPF chicken (white leghorn)
Procedure: (§9) (2) Test of Effectiveness Mycoplasma gallisepticum air-sac infection method
(§10) Inoculation: To the right air-sac of 9 days old SPF chicken (a white leghorn) which has abstained from water and feed one day before is inoculated 0.20-0.25 ml/chicken of fresh mycoplasma culture incubated for 24-48 hr and diluted with broth (usually 100 times). The concentration in Table 2 is shown in a unit of mg/ml.
(§11) Medium: Chick PPLO broth supplemented with 15% equine serum (Eiken Kagaku Co., Ltd.)
(§12) Administration: A compound of this invention dissolved or suspended in the following solution is orally and forcibly administered once by a cannula immediately after the infection.
(§13) Anatomization and Isolation of Microorganism: The chickens are anatomized 5 days after the infection, and the right and left air sacs are investigated whether they are attacked with a disease or not. The change caused by the disease is represented in four degrees; -: no change, +: slight, ++: medium and +++: serious. Microorganism is isolated from the right and left air-sacs and the trachea by using a sterilized applicator.
(§14) Judgement: Judgement is done through an index of an air-sac disease and an index of a microorganism-isolation.
(§15) Index of an air-sac-disease: First, indexes in the right and left air-sacs are separately calculated according to the following formula;
(§16) {degree of disease (0-3)×chickens}/anatomized chickens
(§17) and the index is calculated by the following formula;
(§18) (index of right air-sac)×1+(index of left air-sac)×2
(§19) Index of a microorganism isolation:
(§20) P: chickens from the right air-sac of which microorganism is isolated,
(§21) Q: chickens from the trachea of which microorganism is isolated,
(§22) R: chickens from the left air-sac of which microorganism is isolated, and
(§23) S: chickens investigated.

[6] = system: Mycoplasma gallisepticum T-7-T (wild strain, tylosin-resistant); test: Mycoplasma gallisepticum air-sac infection method in chicken, strain T-7-T;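 for Index of Isolation: index = (P×1 + Q×2 + R×3)/S with range 0 to 6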; assay type: in vivo, Mycoplasma gallisepticum; SPF chicken (white leghorn); conditions: 100 mg/kg × once oral, 10 mg/ml sol. b; for Change of air-sac, left: + (chickens) / Change of air-sac, left: ++ (chickens) / Change of air-sac, left: +++ (chickens) / Change of air-sac, left: - (chickens) / Change of air-sac, right: + (chickens) / Change of air-sac, right: ++ (chickens) / Change of air-sac, right: +++ (chickens) / Change of air-sac, right: - (chickens) / Isolation, L (left air-sac) / Isolation, R (right air-sac) / Isolation, T (trachea) / Mycoplasma Isolated Chickens: inoculum 10^2; for Index of Isolation: inoculum 10^2, range 0-6.0; for Index of Disease: inoculum 10^2, range 0-9.0
Procedure: as §9, §8, §10, §11, §12, §13, §14, §15, §16, §17, §18, §19, §20, §21, §22, §23

[7] = Acute toxicity test in chickens; assay type: in vivo, SPF chickens of layer type; conditions: 400 mg/kg or 200 mg/kg once oral, 2 weeks; for increase of weight: vs control group
Procedure: Acute toxicity tests on tropolone L-lysine salt and O-acetyltropolone were performed according to the following method.
The tests had been done on 15 days old SPF chickens of layer type (5 males and 5 females) for 2 weeks. The above two compounds suspended in 5% gum arabic are orally and forcibly administered once at a dose of 400 mg/kg or 200 mg/kg. To a control group is administered 5% gum arabic.

[8] = 100 mg/kg × once oral, 10 mg/ml sol. b, inoculum 1.2 × 10^6
[9] = 100 mg/kg × once oral, 10 mg/ml sol. b, inoculum 1.2 × 10^6, range 0-6.0
[10] = 100 mg/kg × once oral, 10 mg/ml sol. b, inoculum 1.2 × 10^6, range 0-9.0
[11] = 200 mg/kg × once oral, 20 mg/ml sol. b, inoculum 1.18 × 10^6
[12] = Mycoplasmoides gallisepticum, 168 h, read-out: MIC
[13] = 200 mg/kg × once oral, 20 mg/ml sol. c, inoculum 6.3 × 10^4

Structure (SMILES): O=c1cccccc1O [Compound 11, Tropolone L-lysine salt]
- MIC [1]: 0.39 µg/mL
- MIC [2]: 0.78 µg/mL
- MIC [3]: 0.78 µg/mL
- MIC [4]: 0.78 µg/mL
- Change of air-sac, left: + (chickens) [5, 8]: 0
- Change of air-sac, left: ++ (chickens) [5, 8]: 0
- Change of air-sac, left: +++ (chickens) [5, 8]: 0
- Change of air-sac, left: - (chickens) [5, 8]: 8
- Change of air-sac, right: + (chickens) [5, 8]: 0
- Change of air-sac, right: ++ (chickens) [5, 8]: 0
- Change of air-sac, right: +++ (chickens) [5, 8]: 0
- Change of air-sac, right: - (chickens) [5, 8]: 8
- Isolation, L (left air-sac) [5, 8]: 2
- Isolation, R (right air-sac) [5, 8]: 0
- Isolation, T (trachea) [5, 8]: 1
- Mycoplasma Isolated Chickens [5, 8]: 2
- Index of Isolation [5, 9]: 0.54
- Index of Disease [5, 10]: 0
- Change of air-sac, left: + (chickens) [5, 11]: 0
- Change of air-sac, left: ++ (chickens) [5, 11]: 0
- Change of air-sac, left: +++ (chickens) [5, 11]: 0
- Change of air-sac, left: - (chickens) [5, 11]: 5
- Change of air-sac, right: + (chickens) [5, 11]: 0
- Change of air-sac, right: ++ (chickens) [5, 11]: 0
- Change of air-sac, right: +++ (chickens) [5, 11]: 0
- Change of air-sac, right: - (chickens) [5, 11]: 5
- Isolation, L (left air-sac) [5, 11]: 0
- Isolation, R (right air-sac) [5, 11]: 4
- Isolation, T (trachea) [5, 11]: 0
- Mycoplasma Isolated Chickens [5, 11]: 4
- Index of Isolation ([5]; 200 mg/kg × once oral, 20 mg/ml sol. b, inoculum 1.18 × 10^6, range 0-6.0): 0.8
- Index of Disease ([5]; 200 mg/kg × once oral, 20 mg/ml sol. b, inoculum 1.18 × 10^6, range 0-9.0): 0
- Change of air-sac, left: + (chickens) [6]: 0
- Change of air-sac, left: ++ (chickens) [6]: 0
- Change of air-sac, left: +++ (chickens) [6]: 0
- Change of air-sac, left: - (chickens) [6]: 8
- Change of air-sac, right: + (chickens) [6]: 0
- Change of air-sac, right: ++ (chickens) [6]: 0
- Change of air-sac, right: +++ (chickens) [6]: 0
- Change of air-sac, right: - (chickens) [6]: 8
- Isolation, L (left air-sac) [6]: 1
- Isolation, R (right air-sac) [6]: 4
- Isolation, T (trachea) [6]: 5
- Mycoplasma Isolated Chickens [6]: 5
- Index of Isolation [6]: 2.90
- Index of Disease [6]: 0
- deaths [7]: none of chickens died
- increase of weight [7]: equal to the control group

Structure (SMILES): CC(=O)Oc1cccccc1=O [Compound 13, O-Acetyltropolone]
- MIC [1, 12]: 0.39 µg/mL (≈ 2.38 µM)
- MIC [2, 12]: 0.78 µg/mL (≈ 4.75 µM)
- MIC [3, 12]: 0.78 µg/mL (≈ 4.75 µM)
- Change of air-sac, left: + (chickens) [5, 8]: 0
- Change of air-sac, left: ++ (chickens) [5, 8]: 0
- Change of air-sac, left: +++ (chickens) [5, 8]: 0
- Change of air-sac, left: - (chickens) [5, 8]: 8
- Change of air-sac, right: + (chickens) [5, 8]: 1
- Change of air-sac, right: ++ (chickens) [5, 8]: 0
- Change of air-sac, right: +++ (chickens) [5, 8]: 0
- Change of air-sac, right: - (chickens) [5, 8]: 7
- Isolation, L (left air-sac) [5, 8]: 2
- Isolation, R (right air-sac) [5, 8]: 2
- Isolation, T (trachea) [5, 8]: 3
- Mycoplasma Isolated Chickens [5, 8]: 3
- Index of Isolation [5, 9]: 1.75
- Index of Disease [5, 10]: 0.1
- Change of air-sac, left: + (chickens) [5, 13]: 0
- Change of air-sac, left: ++ (chickens) [5, 13]: 0
- Change of air-sac, left: +++ (chickens) [5, 13]: 0
- Change of air-sac, left: - (chickens) [5, 13]: 5
- Change of air-sac, right: + (chickens) [5, 13]: 0
- Change of air-sac, right: ++ (chickens) [5, 13]: 0
- Change of air-sac, right: +++ (chickens) [5, 13]: 0
- Change of air-sac, right: - (chickens) [5, 13]: 5
- Isolation, L (left air-sac) [5, 13]: 0
- Isolation, R (right air-sac) [5, 13]: 0
- Mycoplasma Isolated Chickens [5, 13]: 0
- Index of Disease ([5]; 200 mg/kg × once oral, 20 mg/ml sol. c, inoculum 6.3 × 10^4, range 0-9.0): 0
- Index of Isolation ([5]; 200 mg/kg × once oral, 20 mg/ml sol. c, inoculum 6.3 × 10^4, trachea ND, range 0-6.0): 0
- Change of air-sac, left: + (chickens) [6]: 0
- Change of air-sac, left: ++ (chickens) [6]: 0
- Change of air-sac, left: +++ (chickens) [6]: 0
- Change of air-sac, left: - (chickens) [6]: 8
- Change of air-sac, right: + (chickens) [6]: 0
- Change of air-sac, right: ++ (chickens) [6]: 0
- Change of air-sac, right: +++ (chickens) [6]: 0
- Change of air-sac, right: - (chickens) [6]: 8
- Isolation, L (left air-sac) [6]: 1
- Isolation, R (right air-sac) [6]: 1
- Isolation, T (trachea) [6]: 2
- Mycoplasma Isolated Chickens [6]: 2
- Index of Isolation [6]: 0.90
- Index of Disease [6]: 0
- deaths [7]: none of chickens died
- increase of weight [7]: a little inferior to the control-group

- MIC [1, 12]: 0.39 µg/mL (≈ 1.94 µM)
- MIC [2, 12]: 0.78 µg/mL (≈ 3.88 µM)
- MIC [3, 12]: 1.56 µg/mL (≈ 7.76 µM)
- MIC ([4]; Mesomycoplasma hyopneumoniae, read-out: MIC): 0.2 µg/mL (≈ 0.995 µM)
Structure (SMILES): O=c1c(O)ccccc1Br [Compound 24, 7-Bromotropolone]
- Change of air-sac, left: + (chickens) [5, 8]: 0
- Change of air-sac, left: ++ (chickens) [5, 8]: 0
- Change of air-sac, left: +++ (chickens) [5, 8]: 0
- Change of air-sac, left: - (chickens) [5, 8]: 8
- Change of air-sac, right: + (chickens) [5, 8]: 0
- Change of air-sac, right: ++ (chickens) [5, 8]: 0
- Change of air-sac, right: +++ (chickens) [5, 8]: 0
- Change of air-sac, right: - (chickens) [5, 8]: 8
- Isolation, L (left air-sac) [5, 8]: 4
- Isolation, R (right air-sac) [5, 8]: 1
- Isolation, T (trachea) [5, 8]: 7
- Mycoplasma Isolated Chickens [5, 8]: 7
- Index of Isolation [5, 9]: 2.70
- Index of Disease [5, 10]: 0
- Change of air-sac, left: + (chickens) [6]: 0
- Change of air-sac, left: ++ (chickens) [6]: 0
- Change of air-sac, left: +++ (chickens) [6]: 0
- Change of air-sac, left: - (chickens) [6]: 8
- Change of air-sac, right: + (chickens) [6]: 0
- Change of air-sac, right: ++ (chickens) [6]: 0
- Change of air-sac, right: +++ (chickens) [6]: 0
- Change of air-sac, right: - (chickens) [6]: 8
- Isolation, L (left air-sac) [6]: 3
- Isolation, R (right air-sac) [6]: 3
- Isolation, T (trachea) [6]: 5
- Mycoplasma Isolated Chickens [6]: 5
- Index of Isolation [6]: 2.80
- Index of Disease [6]: 0
